Structures can show the parent of a compound that is named as a salt. Where two headings read alike, the source gives them in different places.
Columns and labels:
[1] = molecular target: T1, α4β2 nicotinic acetylcholine receptor (Rattus norvegicus, UniProt P09483+P12390); assay: [3H]-N-methylcarbamyl choline (3H-MCC) displacement, rat cerebral cortex membranes; format: binding
T1 construct: from tissue; host or cells: rat cerebral cortex membranes
Method: Binding at the α4β2 nicotinic acetyicholine receptor can be measured as described in Abood, et al., Biochem. Pharmacol., 1986, 35:4199, or in Boksa, et al, Eur. J Pharmacol., 1987, 139:323. In essence, washed rat cerebral cortex membranes suspended in ice-cold saline (pH 7.4) were incubated with [^3H]-N-methylcarbamyl choline (^3H—MCC) for 60 minutes before being washed free of unbound radioligand with two rapid washes of the saline solution, using vacuum filtration. The glass filters used to collect the membranes for scintillation counting were pre-equilibrated with polyethyleneimine to reduce ligand binding by the filters.
Atropine sulfate at 12 μM was used to block muscarinic binding sites. Non-specific binding was assessed in the presence of 100 μM carbamylcholine. Thus, the Kd values of the test compounds were determined by their ability to compete for [^3H-acetyl]choline or ^3H—MCC binding. […] Some representative compounds of Formula I were tested for their ability to displace [^3H]—MCC. The Kl values presented in the table are mean values obtained from two separate experiments. […] In Table 3, “NA.” means that the data are not available.

[2] = Kitagawa et al. 2003; cited from earlier work
α4β2 nicotinic receptors = α4β2 nicotinic receptors (Rattus norvegicus, UniProt P09483+P12390); assay: [3H]cytisine binding displacement, washed whole rat brain membranes
Sequence of α4β2 nicotinic receptors (P09483 31-630): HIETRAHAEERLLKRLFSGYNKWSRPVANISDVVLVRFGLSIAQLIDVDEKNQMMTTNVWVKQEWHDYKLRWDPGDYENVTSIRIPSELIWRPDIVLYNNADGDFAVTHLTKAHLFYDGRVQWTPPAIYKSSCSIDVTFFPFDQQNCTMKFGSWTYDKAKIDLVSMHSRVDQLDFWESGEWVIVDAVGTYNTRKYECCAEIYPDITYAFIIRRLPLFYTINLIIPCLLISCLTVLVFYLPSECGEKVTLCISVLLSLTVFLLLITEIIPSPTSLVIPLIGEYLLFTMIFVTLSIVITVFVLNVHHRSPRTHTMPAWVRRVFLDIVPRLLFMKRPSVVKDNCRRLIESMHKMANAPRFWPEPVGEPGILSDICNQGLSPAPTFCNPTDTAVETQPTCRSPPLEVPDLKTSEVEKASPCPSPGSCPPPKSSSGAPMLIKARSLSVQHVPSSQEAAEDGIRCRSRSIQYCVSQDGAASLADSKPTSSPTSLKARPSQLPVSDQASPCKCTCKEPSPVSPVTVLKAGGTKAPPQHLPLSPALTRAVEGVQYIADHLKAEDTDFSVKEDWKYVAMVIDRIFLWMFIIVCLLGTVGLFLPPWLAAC
Sequence of α4β2 nicotinic receptors (P12390 25-500): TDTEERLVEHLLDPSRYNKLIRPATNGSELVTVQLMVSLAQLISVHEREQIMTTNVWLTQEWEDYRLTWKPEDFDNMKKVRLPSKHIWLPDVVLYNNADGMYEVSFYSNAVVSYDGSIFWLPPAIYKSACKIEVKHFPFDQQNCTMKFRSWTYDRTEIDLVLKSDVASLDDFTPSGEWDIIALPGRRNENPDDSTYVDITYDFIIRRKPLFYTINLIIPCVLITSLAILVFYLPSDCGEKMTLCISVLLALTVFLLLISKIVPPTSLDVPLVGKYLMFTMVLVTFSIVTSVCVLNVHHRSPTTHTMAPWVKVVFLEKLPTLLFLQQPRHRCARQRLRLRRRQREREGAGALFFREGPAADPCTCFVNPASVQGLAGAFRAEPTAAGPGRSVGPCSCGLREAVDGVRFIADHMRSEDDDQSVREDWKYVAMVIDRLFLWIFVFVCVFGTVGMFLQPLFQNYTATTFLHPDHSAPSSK

α7 receptors = assay: Residual inhibition of ACh response after exposure to compound, oocytes; format: cell-based; conditions: 100 pM compound
Method: Peak currents were measured for responses of α4β2 receptors to agonist application, because desensitization of this receptor subtype was slow enough not to affect the concentration-response relation measured in this manner. Currents resulting from agonist application to the more rapidly desensitizing α7 receptors were integrated over a period of […] after application commenced. To compare data obtained from different oocytes, a standard response normalization procedure was used. Agonist responses of a particular oocyte were always normalized relative to its response to a standard acetylcholine (ACh) control. Before actual measurements of agonist properties, several ACh pulses separated by 5-mm intervals were applied until the responses of the oocyte to ACh became steady. After washing for 5 mm, the peak current response to the test compound was measured. After another 5-mm washing period, ACh was again applied to measure the residual responsiveness of the receptors to ACh after exposure to the test substance. The concentration-response data were fitted with a modified Hill equation, I=Imax [agonist]^nH/([agonist]^nH+EC50), to estimate apparent efficacy (normalized maximal response) and EC50.
The numbers in parentheses in Table 2 are calculated EC50, values for just the ionized forms.

[3] = inhibitory concentration of the ionized form, calculated assuming only the cationic form interacts, read-out: [3H] Cytisine Binding Ki(Ion)
[4] = rat brain membranes, radioligand 1 nM, mean±S.E.M. of three experiments, read-out: [3H] Cytisine Binding Ki ± S.E.M.
[5] = displacement of [3H]-MCC, mean of two experiments, Cheng-Prusoff with Kd 5 nM, read-out: α4β2 Ki

T1 sequence (P09483 31-630): as the sequence (P09483 31-630) above
T1 sequence (P12390 25-500): as the sequence (P12390 25-500) above

Compound | Ki ([1]; read-out: α4β2 Ki) | other results
Cc1ccc(C=C2CCCN=C2c2cccnc2)cc1 [GTS-48, 3-(4-Methylbenzylidene)anabaseine] | 2000 nM | –
COc1cccc(C=C2CCCN=C2c2cccnc2)c1 [GTS-20, 3-(3-Methoxybenzylidene)anabaseine] | – | Ki [1]: 4000 nM
O=[N+]([O-])c1ccc(C=C2CCCN=C2c2cccnc2)cc1 [GTS-3, 3-(4-Nitrobenzylidene)anabaseine] | > 5000 nM | –
Cc1ccncc1C1=NCCCC1 [GTS-28, 4′-Methylanabaseine] | – | Ki [1]: 3800 nM
CCCOc1ccc(C=C2CCCN=C2c2cccnc2)c(OCCC)c1 [GTS-53, 3-(2,4-Dipropoxybenzylidene)anabaseine] | 4500 nM | –
COc1ccc(C=C2CCCN=C2c2ccccc2)c(OC)c1 [GTS-63, 2-Phenyl-3-(2,4-dimethoxybenzylidene)-4,5,6-trihydropyridine] | > 5000 nM | –
COc1ccc(C=C2CCCN=C2c2cccnc2)cc1 [GTS-2, 3-(4-Methoxybenzylidene)anabaseine] | – | Ki [1]: 320 nM
Cc1cncc(C2=NCCCC2)c1 [GTS-60, 5′-Methylanabaseine] | – | Ki [1]: 130 nM
COc1ccc(/C=C2\CCCN=C2c2cccnc2)c(OC)c1 [GTS-21, 3-(2,4-Dimethoxybenzylidene)anabaseine] | 120 nM | human toxicity in phase I clinical trial [2]: did not display significant human toxicity; Ki (α4β2 nicotinic receptors; [3]): 158 nM; Ki (α4β2 nicotinic receptors; [4]): 253 ± 37 nM; residual inhibition (reduced response to ACh 5 min after washing) (α7 receptors): ~50%
COc1ccc(C=C2CCC[N+](C)=C2c2cccnc2)c(OC)c1 [GTS-58, 1-Methyl-3-(2,4-djmethoxybenzylidene)anabaseine trifluoroacetate] | – | Ki [1, 5]: > 5000 nM
COc1cc(OC)c(C=C2CCCN=C2c2cccnc2)c(OC)c1 [GTS-35, 3-(2,4,6-Trimethoxybenzylidene)anabaseine] | 170 nM | –
COc1ccccc1C=C1CCCN=C1c1cccnc1 [GTS-16, 3-(2-Methoxybenzylidene)anabaseine] | 830 nM | –
CCCCCOc1ccc(C=C2CCCN=C2c2cccnc2)c(O)c1 [GTS-56, 3-(2-Hydroxy-4-pentoxybenzylidene)anabaseine] | 250 nM | –
Clc1ccc(C=C2CCCN=C2c2cccnc2)c(Cl)c1 [GTS-38, 3-(2,4-Dichlorobenzylidene)anabaseine] | 2000 nM | –
N#Cc1ccc(C=C2CCCN=C2c2cccnc2)cc1 [GTS-5, 3-(4-Cyanobenzylidene)anabaseine] | > 5000 nM | –
C(=C1CCCN=C1c1cccnc1)c1ccoc1 [GTS-45, 3(3-Furylidene)anabaseine] | 860 nM | –
COc1ccc(C=C2CCCN=C2c2cccnc2)c(O)c1 [GTS-51, 3-(2-Hydroxy-4-methoxybenzylidene)anabaseine] | 1500 nM | Ki (α4β2 nicotinic receptors; [3]): 128 nM; Ki (α4β2 nicotinic receptors; [4]): 387 ± 25 nM

Compound | Ki ([1]; read-out: α4β2 Ki) | other results
Cc1ccc(C=C2CCCN=C2c2cccnc2)c(C)c1 [GTS-39, 3-(2,4-Dimethylbenzylidene)anabaseine] | 1000 nM | –
Nc1ccc(C=C2CCCN=C2c2cccnc2)cc1 [GTS-13, 3-(4-Aminobenzylidene)anabaseine] | 170 nM | –
C(=Cc1ccco1)C=C1CCCN=C1c1cccnc1 [GTS-44, 3-(2-Furylpropenylidene)anabaseine] | 800 nM | –
COc1cc(C=C2CCCN=C2c2cccnc2)ccc1O [GTS-23, 3-(3-Methoxy-4-hydroxybenzylidene)anabaseine] | > 5000 nM | –
Cc1ncccc1C1=NCCCC1 [GTS-27, 2′-Methylanabaseine] | – | Ki [1]: 33000 nM
Oc1ccc(C=C2CCCN=C2c2cccnc2)cc1 [GTS-7, 3-(4-Hydroxybenzylidene)anabaseine] | 25 nM | –
C(=C1CCCN=C1c1cccnc1)c1ccco1 [GTS-43, 3-(2-Furylidene)anabaseine] | 640 nM | –
Cc1cc(C)c(C=C2CCCN=C2c2cccnc2)c(C)c1 [GTS-40, 3-(2,46,-Trimethylbenzylidene)anabaseine] | 500 nM | –
CC(C)Oc1ccc(C=C2CCCN=C2c2cccnc2)c(OC(C)C)c1 [GTS-54, 3-(2,4-Diisopropoxybenzylidene)anabaseine] | 1000 nM | –
CN(C)c1ccc(C=CC=C2CCCN=C2c2cccnc2)cc1 [DMACA, 3-(4-Dimethylaminocinnamylidene)anabaseine] | 400 nM | –
CCCCCOc1ccc(C=C2CCCN=C2c2cccnc2)c(OCCCCC)c1 [GTS-55, 3-(2,4-Dipentoxybenzylidene)anabaseine] | 2500 nM | –
Clc1ccc(C=C2CCCN=C2c2cccnc2)cc1 [GTS-8, 3-(4-Chlorobenzylidene)anabaseine] | > 5000 nM | –
6′-Methyl-3-(2,4-dimethoxybenzylidene)anabaseine [GTS-57] | – | Ki [1, 5]: 500 nM
CN(C)CCCOc1ccc(C=C2CCCN=C2c2cccnc2)cc1 [GTS-15, 3-(4-Dimethylaminopropoxy-benzylidene)anabaseine] | 1600 nM | –
Oc1ccc(C=C2CCCN=C2c2cccnc2)c(O)c1 [GTS-52, 3-(2,4-Dihydroxybenzylidene)anabaseine] | 450 nM | Ki (α4β2 nicotinic receptors; [3]): 103 nM; Ki (α4β2 nicotinic receptors; [4]): 206 ± 16 nM
Cc1ccc(C2=NCCCC2)cn1 [GTS-26, 6′-Methylanabaseine] | – | Ki [1]: 26 nM

Reference: US20050288333A1 (priority 2004, published 2005)
